In patent EP0181109B1, “N6-benzopyrano- and benzothiopyrano-adenosines” (WARNER-LAMBERT COMPANY, priority 1984, dated 1986):

Experiments:
[1] = biological target: T1, adenosine A2 receptor (Rattus norvegicus, UniProt P30543); assay: Adenosine Receptor Binding - A2 Receptor Affinity (RBA2), [3H]NECA displacement in striatal membranes; conditions: 4 nM [3H]NECA, 50 nM N6-cyclopentyladenosine, 60 minutes at 25°C, read-out: RBA-2 (IC50, A2 receptor affinity)
T1 construct: Brains were thawed and then kept on ice while the striata were dissected out; tissue Pel-Freez (Rogers, Arkansas); host or cells: rat striatum (membranes)
T1 sequence (P30543 whole entry): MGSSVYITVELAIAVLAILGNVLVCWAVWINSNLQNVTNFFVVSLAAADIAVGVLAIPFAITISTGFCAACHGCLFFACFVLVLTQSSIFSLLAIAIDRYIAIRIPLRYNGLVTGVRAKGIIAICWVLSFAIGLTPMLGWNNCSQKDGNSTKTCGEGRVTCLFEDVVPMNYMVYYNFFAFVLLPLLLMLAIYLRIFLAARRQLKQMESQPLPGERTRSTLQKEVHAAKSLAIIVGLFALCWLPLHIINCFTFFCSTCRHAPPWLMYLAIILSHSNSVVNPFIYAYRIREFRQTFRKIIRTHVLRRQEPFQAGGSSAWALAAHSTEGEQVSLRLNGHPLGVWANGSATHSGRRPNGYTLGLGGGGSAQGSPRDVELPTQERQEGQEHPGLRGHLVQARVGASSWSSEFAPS
Protocol: Brains from 200-500 g mixed sex Sprague-Dawley rats were purchased from Pel-Freez (Rogers, Arkansas). Fresh brains from male Long-Evans hooded rats (Blue Spruce Farms, Altamont, NY) gave essentially identical results. Brains were thawed and then kept on ice while the striata were dissected out. Striata were disrupted in 10 vol of ice-cold 50 mM Tris·HCl (pH 7.7 at 25°C, pH 8.26 at 5°C) (Tris) for 30 seconds in a Polytron PT―10 (Brinkmann) at setting 5. The suspension was centrifuged at 50,000 xg for ten minutes, the supernatant discarded, the pellet resuspended in 10 vol ice-cold Tris as above, recentrifuged, resuspended at 1 g/5 ml, and stored in plastic vials at -70°C (stable for at least six months). When needed, tissue was thawed at room temperature, disrupted in a Polytron, and kept on ice until used.
All incubations were for 60 minutes at 25°C in 12 x 75 mm glass tubes containing 1 ml Tris with 5 mg original tissue weight of rat weight of rat striatal membranes, 4 nM [^3H]-N-ethyl adenosine-5'-carboxamide ([^3H]NECA), 50 nM N^s-cyclopentyladenosine (to eliminate A1 receptor binding), 10 mM MgCI2, 0.1 units/ml of adenosine deaminase and 1% dimethylsulfoxide. N^6-Cyclopentyladenosine was dissolved at 10 mM in 0.02 N HCI and diluted in Tris. Stock solutions and dilutions of N^6-cyclopentyladenosine could be stored at -20°C for several months. Test compounds were dissolved at 10 mM in dimethylsulfoxide on the same day as the experiment, and diluted in dimethylsulfoxide to 100x the final incubation concentration. Control incubations received an equal volume (10 µl) of dimethylsulfoxide; the resulting concentration of dimethylsulfoxide had no effect on binding. [^3H]NECA was diluted to 40 nM in Tris. The membrane suspension (5 mg/0.79 ml) contained sufficient MgC12 and adenosine deaminase to give 10 mM and 0.1 units/ml, respectively, final concentration in the incubation. […] After all additions, the rack of tubes was vortexed, and the tubes were then incubated for 60 min at 25°C in a shaking water bath. The rack of tubes was vortexed an additional time halfway through the incubation.
Incubations were terminated by filtration through 2.4 cm GF/B filters under reduced pressure. Each tube was filtered as follows: the contents of the tube were poured onto the filter, 4 ml of ice-cold Tris were added to the tube and the contents poured onto the filter, and the filter was washed twice with 4 ml of ice-cold Tris. The filtration was complete in about 12 seconds. Filters were put in scintillation vials, 8 ml of Formula 947 scintillation fluid added, and the vials left overnight, shaken, and counted in a liquid scintillation counter at 40% efficiency.
Nonspecific binding was defined as binding in the presence of […] N^6-cyclopentyladenosine, and specific binding was defined as total binding minus nonspecific binding. The IC50 was calculated by weighted nonlinear least squares curve-fitting to the mass action equation. [formula] • where Y is cpm bound • T is cpm total binding without drug • S is cpm specific binding without drug • D is the concentration of drug • and K is the IC50 of the drug Weighting factors were calculated under the assumption that the standard deviation was proportional to the predicted value of Y. Nonspecific binding was treated as a very large (infinite) concentration of drug in the computer analysis.

[2] = tested on: spontaneous locomotion; assay: Mouse Activity and Screen Test Procedure (MAST): locomotor activity in actophotometer; assay type: in vivo, Swiss-Webster male mice; conditions: one hour prior to testing
Protocol: Nine unfasted Swiss-Webster male mice weighing 20-30 g are equally divided into three groups for each drug dose to be tested. There is, data for each dose level was generated by three separate groups of three mice each.
A minimum of three dose levels (10, 30, and 100 mg/kg) are tested for each drug. Treatments are administered intraperitoneally one hour prior to testing. All dosages are calculated as parent compound and given in volumes of 10 ml/kg. Compounds are dissolved or suspended in 0.2% Methocel. Control animals are injected with Methocel.
The actophotometer consists of a cylindrical chamber whose center is occupied by another cylinder which contains the illumination for six photocells located on the perimeter of the chamber. Six light-beam interruptions equal one count. Locomotor activity is recorded by computer at ten minute intervals for 60 minutes.
Data: The data obtained from the screen test are expressed as percent of mice falling off the screen. Data derived from locomotor activity of drug treated mice are compared to the activity of vehicle treated animals and are expressed as percent inhibition of spontaneous locomotion. All percentages reported for inhibition of locomotion (LI) are based upon data accumulated for one hour. […] An overall dose rating is obtained by the following criteria:
LAD refers to the lowest dose at which an A rating is achieved. […] The compounds are identified in the Examples.

Compound	IC50 [1]	Inhibition of Mouse Locomotion Activity ([2]; 1 mg/kg intraperitoneally)	Inhibition of Mouse Locomotion Activity ([2]; 3 mg/kg intraperitoneally)	Inhibition of Mouse Locomotion Activity ([2]; 10 mg/kg intraperitoneally)	Inhibition of Mouse Locomotion Activity ([2]; 30 mg/kg intraperitoneally)	Inhibition of Mouse Locomotion Activity ([2]; 100 mg/kg intraperitoneally)	Inhibition of Mouse Locomotion Activity ([2]; 0.3 mg/kg intraperitoneally)	Inhibition of Mouse Locomotion Activity ([2]; 9.0 mg/kg intraperitoneally)
Cc1ccc2c(c1C)OCC(Nc1ncnc3c1ncn3[C@@H]1O[C@H](CO)[C@@H](O)[C@H]1O)C2 (stereo partly shown) [Example 10, N^6-[7,8-Dimethyl-3-chromanylamino]adenosine]	0.942 µM	-8%	33%	85%	91%	96%	–	–
COc1ccc2c(c1)CC(Nc1ncnc3c1ncn3[C@@H]1O[C@H](CO)[C@@H](O)[C@H]1O)CO2 (stereo partly shown) [Example 6]	1.09 µM	45%	77%	98%	98%	100%	–	–
CC(C)(C)c1ccc2c(c1)OCC(Nc1ncnc3c1ncn3[C@@H]1O[C@H](CO)[C@@H](O)[C@H]1O)C2 (stereo partly shown) [Example 13, N^6-[7-t-Butyl-3-chromanylamino)adenosine]	2.94 µM	–	–	50%	82%	88%	–	–
OC[C@H]1O[C@@H](n2cnc3c(NC4CSc5ccccc5C4)ncnc32)[C@H](O)[C@@H]1O (stereo partly shown) [Example 2]	0.34 µM	34%	60%	96%	98%	99%	–	–
Cc1cc2c(cc1C)OCC(Nc1ncnc3c1ncn3[C@@H]1O[C@H](CO)[C@@H](O)[C@H]1O)C2 (stereo partly shown) [Example 9, N^6-[6,7-Dimethyl-3-chromanylamino]adenosine]	1.24 µM	11%	34%	77%	96%	97%	–	–
O=S1(=O)CCC(Nc2ncnc3c2ncn3[C@@H]2O[C@H](CO)[C@@H](O)[C@H]2O)c2ccccc21 (stereo partly shown) [Example 16, N^6-[4-Benzothiopyran-1,1-dioxideamino]adenosine]	1.39 µM	–	15%	69%	98%	–	–	–
COc1cc(OC)c2c(c1)OC(C)(C)CC2Nc1ncnc2c1ncn2[C@@H]1O[C@H](CO)[C@@H](O)[C@H]1O (stereo partly shown) [Example 14]	37.9 µM	–	–	8%	13%	2%	–	–

Continued, in another order:

IC50 [1]	Compound	Inhibition of Mouse Locomotion Activity ([2]; 1 mg/kg intraperitoneally)	Inhibition of Mouse Locomotion Activity ([2]; 3 mg/kg intraperitoneally)	Inhibition of Mouse Locomotion Activity ([2]; 10 mg/kg intraperitoneally)	Inhibition of Mouse Locomotion Activity ([2]; 30 mg/kg intraperitoneally)	Inhibition of Mouse Locomotion Activity ([2]; 100 mg/kg intraperitoneally)	Inhibition of Mouse Locomotion Activity ([2]; 0.3 mg/kg intraperitoneally)	Inhibition of Mouse Locomotion Activity ([2]; 9.0 mg/kg intraperitoneally)
1.36 µM	COc1ccc2c(c1)OCC(Nc1ncnc3c1ncn3[C@@H]1O[C@H](CO)[C@@H](O)[C@H]1O)C2 (stereo partly shown) [Example 3]	25%	58%	89%	97%	–	–	–
0.21 µM	OC[C@H]1O[C@@H](n2cnc3c(NC4COc5c(Cl)cccc5C4)ncnc32)[C@H](O)[C@@H]1O (stereo partly shown) [Example 5]	-14%	30%	89%	97%	99%	–	–
0.0865 µM	OC[C@H]1O[C@@H](n2cnc3c(NC4CCSc5ccccc54)ncnc32)[C@H](O)[C@@H]1O (stereo partly shown) [Example 15]	–	88%	95%	97%	–	–	–
1.84 µM	CC1Oc2ccccc2CC1Nc1ncnc2c1ncn2C1OC(CO)C(O)C1O (stereo not drawn) [Example 7, N^6-[cis-2-Methyl-3-chromanylamino]adenosine]	57%	95%	–	93%	–	6%	96%
0.6 µM	OC[C@H]1O[C@@H](n2cnc3c(NC4CCOc5ccccc54)ncnc32)[C@H](O)[C@@H]1O (stereo partly shown) [Example 1]	–	91%	94%	97%	–	–	–
0.49 µM	C[C@H]1Oc2ccccc2C[C@@H]1Nc1ncnc2c1ncn2[C@@H]1O[C@H](CO)[C@@H](O)[C@H]1O (relative stereo) [Example 8, N^l-[trans-2-Methyl,-3-chromanylamino]adenosine]	52%	84%	95%	98%	99%	–	–
0.36 µM	Cc1ccc2c(c1C)OC(C)C(Nc1ncnc3c1ncn3[C@@H]1O[C@H](CO)[C@@H](O)[C@H]1O)C2 (stereo partly shown) [Example 11]	13%	27%	90%	95%	99%	–	–
0.61 µM	OC[C@H]1O[C@@H](n2cnc3c(NC4COc5ccccc5C4)ncnc32)[C@H](O)[C@@H]1O (stereo partly shown) [Example 4, N^6-[3-Chromanylamino]adenosine]	36%	87%	94%	99%	98%	–	–
